molecular target: T1, Human FAAH (Homo sapiens, UniProt O00519); assay: FAAH assay (glutamate dehydrogenase-coupled, oleamide substrate, absorbance at 340 nm); format: biochemical; settings: irreversible inhibition potency
T1 construct: made in house
T1 sequence (O00519 32-579 limits assumed): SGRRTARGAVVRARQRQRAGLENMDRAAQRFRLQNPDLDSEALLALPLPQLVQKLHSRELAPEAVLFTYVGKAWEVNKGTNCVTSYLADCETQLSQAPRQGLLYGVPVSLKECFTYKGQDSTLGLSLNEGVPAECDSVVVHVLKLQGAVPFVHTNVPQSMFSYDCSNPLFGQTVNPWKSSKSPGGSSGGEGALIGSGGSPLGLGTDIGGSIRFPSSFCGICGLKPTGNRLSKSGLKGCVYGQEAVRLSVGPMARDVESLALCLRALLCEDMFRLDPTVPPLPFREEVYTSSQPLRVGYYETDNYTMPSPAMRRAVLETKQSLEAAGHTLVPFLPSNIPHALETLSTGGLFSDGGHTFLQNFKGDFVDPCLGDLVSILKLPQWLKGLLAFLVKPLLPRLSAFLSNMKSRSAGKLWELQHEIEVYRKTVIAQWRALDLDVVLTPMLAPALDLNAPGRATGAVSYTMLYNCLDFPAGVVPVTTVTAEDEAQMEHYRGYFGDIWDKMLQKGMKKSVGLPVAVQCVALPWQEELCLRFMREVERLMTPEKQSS
Procedure: A FAAH assay may be carried out in 384-well clear polystyrene plates in a total volume of 50 μl per well. All percents are by volume. To each well was placed the reaction mixture (40 μl) containing 1-4 nM FAAH, 50 mM NaPi, pH 7.4, 3 mM α-ketoglutarate, 0.15 mM NADH, 7.5 U/ml glutamate dehydrogenase, 2 mM ADP, 1 mM EDTA, and 0.1% Triton X-100 (The concentration shown for each component was the final concentration in the assay). To this mixture was added 5 μl of a compound of Examples 1 to 20 at various concentrations prepared in 50% DMSO (or 5 μl 50% DMSO for controls). This was immediately followed by the addition of 5 μl oleamide (500 μM) dissolved in 75% EtOH/25% DMSO and the reaction mixture was mixed for 1.5 min. The final concentrations of DMSO and EtOH in the assay are each 7.5%. The reactions was then incubated at 30° C. and the absorbance at 340 nm was collected over a period of 90 min with readings taken in 30-second intervals using SpectraMax Plus^384 Microplate Spectrophotometer (Molecular Devices, Sunnyvale, Calif.). Human FAAH used in the assay was prepared as described in the patent application WO 2006/067613. The purity of the enzyme used was greater than 98% based on an analysis by SDS-polyacrylamide gel electrophoresis followed by Coomassie Blue staining.
Initial velocity data (V) is obtained from the slopes of the initial progressive curves. They are plotted as a function of substrate concentration and fit to the Michaelis-Menten equation (1) using Prism (GraphPad Software, Inc., San Diego, Calif.) software to obtain Km and Vmax values.
To obtain potencies of irreversible inhibitors, progressive curves consistent with first order inhibition kinetics (two-step irreversible inhibition mechanism) are fit to equation (2) by nonlinear least squares regressions to determine kobs values at each inhibitor concentration, where [P]t is the absorbance at time t, V0 is a constant related to the steady state rate of the uninhibited reaction, and kobs is the first order rate constant for enzyme inactivation. The inhibitor dissociation constant (Ki) and the first order rate
constant of enzyme inactivation at infinite inhibitor concentration (kinact) are then obtained by fitting the kobs vs. [I] curves to equation (3).

hFAAH KInact/K | Compound
36139 M⁻¹ s⁻¹ | O=C(Nc1cccnn1)N1CCC(=Cc2cccc(OCCc3ccccc3)c2)CC1 [Example 75, 4-[3-(2-phenylethoxy)benzylidene]-N-pyridazin-3-ylpiperidine-1-carboxamide]
973 M⁻¹ s⁻¹ | COc1cccc(C=C2CCN(C(=O)Nc3cccnc3)CC2)c1 [Example 2, 4-(3-methoxybenzylidene)-N-pyridin-3-ylpiperidine-1-carboxamide]
188 M⁻¹ s⁻¹ | Cc1ccc(COc2cccc(C=C3CCN(C(=O)Nc4cccnn4)CC3)c2)cn1 [Example 74, 4-{3-[(6-methylpyridin-3-yl)methoxy]benzylidene}-N-pyridazin-3-ylpiperidine-1-carboxamide]
3281 M⁻¹ s⁻¹ | CC1CCC(COc2cccc(C=C3CCN(C(=O)Nc4cccnn4)CC3)c2)CC1 (stereo not shown) [Example 101, 4-{3-[(4-methylcyclohexyl)methoxy]benzylidene}-N-pyridazin-3-ylpiperidine-1-carboxamide]
379 M⁻¹ s⁻¹ | CCC(Oc1cccc(C=C2CCN(C(=O)Nc3cccnn3)CC2)c1)C(C)C (stereo not shown) [Example 64, 4-[3-(1-ethyl-2-methylpropoxy)benzylidene]-N-pyridazin-3-ylpiperidine-1-carboxamide]
531 M⁻¹ s⁻¹ | O=C(Nc1cccnn1)N1CCC(=Cc2cccc(OC3CCC3)c2)CC1 [Example 9, 4-[3-(cyclobutyloxy)benzylidene]-N-pyridazin-3-ylpiperidine-1-carboxamide]
22138 M⁻¹ s⁻¹ | O=C(Nc1cccnn1)N1CCC(=Cc2cccc(OCCC3CC3)c2)CC1 [Example 83, 4-[3-(2-cyclopropylethoxy)benzylidene]-N-pyridazin-3-ylpiperidine-1-carboxamide]
216 M⁻¹ s⁻¹ | CCC(CC)Oc1cccc(C=C2CCN(C(=O)Nc3cccnc3)CC2)c1 [Example 15, 4-[3-(1-ethylpropoxy)benzylidene]-N-pyridin-3-ylpiperidine-1-carboxamide]
451 M⁻¹ s⁻¹ | O=C(Nc1cccnc1)N1CCC(=Cc2cccc(OC3CCOC3)c2)CC1 (stereo not shown) [Example 20, N-pyridin-3-yl-4-[3-(tetrahydrofuran-3-yloxy)benzylidene]piperidine-1-carboxamide]
207 M⁻¹ s⁻¹ | CC1CN(CCOc2cccc(C=C3CCN(C(=O)Nc4cccnn4)CC3)c2)CC(C)O1 (stereo not shown) [Example 102, 4-{3-[2-(2,6-dimethylmorpholin-4-yl)ethoxy]benzylidene}-N-pyridazin-3-ylpiperidine-1-carboxamide]
2090 M⁻¹ s⁻¹ | CC1CCC(Oc2cccc(C=C3CCN(C(=O)Nc4cccnn4)CC3)c2)CC1 (stereo not shown) [Example 39, 4-{3-[(4-methylcyclohexyl)oxy]benzylidene}-N-pyridazin-3-ylpiperidine-1-carboxamide]
2548 M⁻¹ s⁻¹ | O=C(Nc1cccnn1)N1CCC(=Cc2cccc(OCC3CCOCC3)c2)CC1 [Example 76, N-pyridazin-3-yl-4-[3-(tetrahydro-2H-pyran-4-ylmethoxy)benzylidene]piperidine-1-carboxamide]
35 M⁻¹ s⁻¹ | CN1CCCCC1COc1cccc(C=C2CCN(C(=O)Nc3cccnn3)CC2)c1 (stereo not shown) [Example 55, 4-{3-[(1-methylpiperidin-2-yl)methoxy]benzylidene}-N-pyridazin-3-ylpiperidine-1-carboxamide]
1300 M⁻¹ s⁻¹ | O=C(Nc1cccnc1)N1CCC(=Cc2cccc(OC3CC3)c2)CC1 [Example 29, 4-[3-(cyclopropyloxy)benzylidene]-N-pyridin-3-ylpiperidine-1-carboxamide]
2190 M⁻¹ s⁻¹ | O=C(Nc1cccnn1)N1CCC(=Cc2cccc(OC3CCCCCC3)c2)CC1 [Example 16, 4-[3-(cycloheptyloxy)benzylidene]-N-pyridazin-3-ylpiperidine-1-carboxamide]
7398 M⁻¹ s⁻¹ | CC(Cc1ccccc1)Oc1cccc(C=C2CCN(C(=O)Nc3cccnn3)CC2)c1 (stereo not shown) [Example 91, 4-[3-(1-methyl-2-phenylethoxy)benzylidene]-N-pyridazin-3-ylpiperidine-1-carboxamide]
3744 M⁻¹ s⁻¹ | CC1(C)CCC(Oc2cccc(C=C3CCN(C(=O)Nc4cccnn4)CC3)c2)CC1 [Example 81, 4-{3-[(4,4-dimethylcyclohexyl)oxy]benzylidene}-N-pyridazin-3-ylpiperidine-1-carboxamide]
370 M⁻¹ s⁻¹ | Cc1cccc(COc2cccc(C=C3CCN(C(=O)Nc4cccnn4)CC3)c2)n1 [Example 67, 4-{3-[(6-methylpyridin-2-yl)methoxy]benzylidene}-N-pyridazin-3-ylpiperidine-1-carboxamide]
2020 M⁻¹ s⁻¹ | CCOc1cccc(C=C2CCN(C(=O)Nc3cccnc3)CC2)c1 [Example 1, 4-(3-ethoxybenzylidene)-N-pyridin-3-ylpiperidine-1-carboxamide]
563 M⁻¹ s⁻¹ | O=C(Nc1cccnn1)N1CCC(=Cc2cccc(OC3CCOCC3)c2)CC1 [Example 44, N-pyridazin-3-yl-4-[3-(tetrahydro-2H-pyran-4-yloxy)benzylidene]piperidine-1-carboxamide]
371 M⁻¹ s⁻¹ | O=C(Nc1cccnn1)N1CCC(=Cc2cccc(OC3CCOC3)c2)CC1 (stereo not shown) [Example 17, N-pyridazin-3-yl-4-[3-(tetrahydrofuran-3-yloxy)benzylidene]piperidine-1-carboxamide]
2090 M⁻¹ s⁻¹ | CC1(COc2cccc(C=C3CCN(C(=O)Nc4cccnn4)CC3)c2)CC1 [Example 93, 4-{3-[(1-methylcyclopropyl)methoxy]benzylidene}-N-pyridazin-3-ylpiperidine-1-carboxamide]
1090 M⁻¹ s⁻¹ | CC1CCCC(Oc2cccc(C=C3CCN(C(=O)Nc4cccnn4)CC3)c2)C1 (stereo not shown) [Example 38, 4-{3-[(3-methylcyclohexyl)oxy]benzylidene}-N-pyridazin-3-ylpiperidine-1-carboxamide]
16400 M⁻¹ s⁻¹ | O=C(Nc1cccnn1)N1CCC(=Cc2cccc(OC3CCC(F)(F)CC3)c2)CC1 [Example 106, 4-{3-[(4,4-difluorocyclohexyl)oxy]benzylidene}-N-pyridazin-3-ylpiperidine-1-carboxamide]

Compound | hFAAH KInact/K
CCC(C)Oc1cccc(C=C2CCN(C(=O)Nc3cccnc3)CC2)c1 (stereo not shown) [Example 24, 4-(3-sec-butoxybenzylidene)-N-pyridin-3-ylpiperidine-1-carboxamide] | 758 M⁻¹ s⁻¹
CCCCOc1cccc(C=C2CCN(C(=O)Nc3cccnn3)CC2)c1 [Example 51, 4-(3-butoxybenzylidene)-N-pyridazin-3-ylpiperidine-1-carboxamide] | 8350 M⁻¹ s⁻¹
CCCC(C)Oc1cccc(C=C2CCN(C(=O)Nc3cccnc3)CC2)c1 (stereo not shown) [Example 35, 4-[3-(1-methylbutoxy)benzylidene]-N-pyridin-3-ylpiperidine-1-carboxamide] | 2680 M⁻¹ s⁻¹
CCCC(C)Oc1cccc(C=C2CCN(C(=O)Nc3cccnn3)CC2)c1 (stereo not shown) [Example 30, 4-[3-(1-methylbutoxy)benzylidene]-N-pyridazin-3-ylpiperdine-1-carboxamide] | 3440 M⁻¹ s⁻¹
COC(C)(C)CCOc1cccc(C=C2CCN(C(=O)Nc3cccnn3)CC2)c1 [Example 49, 4-[3-(3-methoxy-3-methylbutoxy)benzylidene]-N-pyridazin-3-ylpiperidine-1-carboxamide] | 1290 M⁻¹ s⁻¹
CCCC(CC)Oc1cccc(C=C2CCN(C(=O)Nc3cccnn3)CC2)c1 (stereo not shown) [Example 41, 4-[3-(1-ethylbutoxy)benzylidene]-N-pyridazin-3-ylpiperidine-1-carboxamide] | 1800 M⁻¹ s⁻¹
4-(3-{[trans-4-(cyanomethyl)cyclohexyl]methoxy}benzylidene)-N-pyridazin-3-ylpiperidine-1-carboxamide [Example 96] | 1470 M⁻¹ s⁻¹

Reference: patent publication US20110144159A1, “ETHER BENZYLIDENE PIPERIDINE ARYL CARBOXAMIDE COMPOUNDS USEFUL AS FAAH INHIBITORS” (Pfizer Inc, priority 2008, published 2011)
